Converted amounts (≈) assume the structure as drawn. Where two headings read alike, the source gives them in different places.
Assays:
[1] = test system: Aspergillus fumigatus (ATTC 26934); test: In vitro antifungal activity, broth microdilution (MIC100); type: cell-based; details: A. fumigatus, 30 °C, 48 h, total growth inhibition; for Minimum inhibitory concentration (MIC100): Aspergillus fumigatus, read-out: Fungicidal activity MIC100, AF
Description: (§1) Fungal growth was assessed at six concentrations (3.1–100 μg/mL), using enriched Czapek broth in the presence of triazole 1-8 (Fig. 2). Each treatment was carried out in triplicate. The Minimum Inhibitory Concentration (MIC100) was determined and was defined as the minimum concentration required to inhibit the complete fungal growth inhibition under the conditions of the assay. Triadimefon (TDM) and cyproconazole (CPZ) were used as positive control. In order to evaluate the efficacy of the new compounds to control fungi affecting vineyards, imperfect fungi isolated from infected grapes from the province of San Juan in Argentina were employed. Significant differences were determined by t-Student hypothesis test p, at 95% confidence. In general, moderate to good activity was observed compared to the reference compounds as well as some selectivity against microorganisms.
(§2) The imperfect fungi used for the assays included Botrytis cinerea isolated from grapevine samples, Aspergillus fumigatus (ATTC 26934), A. niger (ATCC 9029), A. ustus (PN-S4), A. japonicus (M15C), A. terreus (M16C) and Fusarium oxysporum (M15-Pa) isolated from soil samples from the province of San Juan, Argentina. The microorganisms were grown on Czapek-yeast extract agar (CYA) prepared with yeast extract, K2HPO4, saccharose, agar, distilled water and enriched with a solution of mineral salts (NaNO3, KCl, MgSO4.7H2O and FeSO4.7 H2O). Inocula were adjusted to 1–5 × 10^4 colony forming units (CFU/ mL).
(§3) The minimum inhibitory concentration (MIC) of each compound was evaluated using broth microdilution techniques in 96-well microtiter plates according to the guidelines of the National Committee for Clinical Laboratory Standards for filamentous fungi M 38 A. The starting inoculum was 1–5 × 10^4 CFU/mL in accordance with the Clinical and Laboratory Standards Institute (CLSI, formerly the National Committee for Clinical Laboratory Standards [NCCLS]) (M27-A3 document for yeasts, and M38-A2 document for filamentous fungi).
(§4) Microtiter plates were incubated at 30 °C for Aspergillus and Fusarium, and 22 °C for B. cinerea in a moist and dark chamber. MIC values were recorded after 48 h for Aspergillus and Fusarium spp., and after 72 h for B. cinerea, according to the fungal growth control. TDM and CPZ were used as positive controls (12.5–50 μg/mL). Stock solutions were two-fold diluted with RPMI from 1000 to 0.98 μg/mL (final volume equal to 100 μL), and a final DMSO concentration ≤ 1%. An inoculum suspension (100 μL) was added to each well with the exception of the sterility control. Endpoints were defined as the lowest compound concentration resulting in total growth inhibition (MIC100) compared to the growth in control wells. MICs values ≤ 50 μg/mL were considered of interest. The assay was carried out in triplicate.

[2] = test system: Fusarium oxysporum (M15-Pa); test: as above; type: cell-based; details: 30 °C, 48 h, total growth inhibition; for MIC100 (minimum concentration for complete growth inhibition): Fusarium oxysporum, F. oxysporum, read-out: Fungicidal activity MIC100, F
Description: as §1, §2, §3, §4

[3] = Cytotoxicity, neutral red uptake assay; type: cell-based, human; details: human
Description: (§5) The cytotoxic effect of the compounds, expressed as cell viability, was assessed on a permanent fibroblast cell line derived from human lung (MRC-5) (ATCC CCL-171). MRC-5 fibroblasts were grown as monolayers in minimum essential Eagle medium (MEM) with Earle’s salts, 2 mM l-glutamine and 2.2 g/L sodium bicarbonate, supplemented with 10% heat inactivated fetal bovine serum (FBS), 100 IU/mL penicillin and 100 µg/mL streptomycin in a humidified incubator with 5% CO2 in the air at 37 °C. Cell passage was maintained between 10 and 16. The medium was changed every 2 days.
(§6) Confluent cultures of MRC-5 fibroblasts were treated with medium containing the compounds at concentrations ranging from 0 to 1000 µM. For comparison purposes, the commercial antifungals CPZ and TDM were used as references, the products were first dissolved in DMSO and then in MEM, supplemented with 2% FBS. The final content of DMSO in the test medium and controls was 1%. Cells were exposed for 24 h to the test medium with or without the compound (control). Each concentration was tested in quadruplicate together with the control, and repeated three times in separate experiments. At the end of the incubation, the neutral red uptake (NRU) assay was carried out. To calculate the IC50 values (concentration that produces a 50% inhibitory effect on the evaluated parameter), the results were transformed to percentage of controls and the IC50 values were graphically obtained from the dose–response curves.

A. japonicus (M15C) = test: In vitro antifungal activity, broth microdilution (MIC100); type: cell-based, Aspergillus japonicus; details: 48 h; for MIC: read-out: Fungicidal activity MIC100, AJ; for Fungicidal activity MIC100, AJ: A. japonicus, 30 °C, total growth inhibition
Description: as §1, §2, §3, §4

[4] = test system: B. cinerea (isolated from grapes); test: as above; type: cell-based, Botrytis cinerea; details: for Fungicidal activity MIC100, BC / MIC100 (complete growth inhibition): 22 °C, total growth inhibition
Description: as §1, §2, §3, §4

A. terreus (M16C) = test: as above; type: cell-based, Aspergillus terreus; details: 48 h; for MIC100 (complete growth inhibition): Aspergillus terreus, read-out: Fungicidal activity MIC100, AT, A. terreus, 30 °C, total growth inhibition
Description: as §1, §2, §3, §4

A. ustus (PN-S4) = test: as above; type: cell-based, Aspergillus ustus; details: 30 °C, 48 h, total growth inhibition; for MIC100 (complete growth inhibition): Aspergillus ustus, read-out: Fungicidal activity MIC100, AU
Description: as §1, §2, §3, §4

A. niger (ATCC 9029) = test: as above; type: cell-based, Aspergillus niger; details: 48 h, total growth inhibition; for MIC100 (complete growth inhibition): Aspergillus niger, ATCC9029, 30 °C, read-out: Fungicidal activity MIC100, AN; for Fungicidal activity MIC100, AN: 30 °C
Description: as §1, §2, §3, §4

[5] = test system: human lung fibroblasts MRC-5; test: Cytotoxicity, neutral red uptake assay; type: cell-based
Description: as §5, §6

[6] = Botrytis cinerea, B. cinerea, 72 h, read-out: Fungicidal activity MIC100, BC
[7] = Botrytis cinerea, B. cinerea, molar conversion of the µg/mL value, read-out: MIC100 against B. cinerea expressed

SMILES	Minimum inhibitory concentration (MIC100) [1]	MIC100 (minimum concentration for complete growth inhibition) [2]	IC50 at 24 h [3]	MIC (A. japonicus (M15C))	Fungicidal activity MIC100, BC ([4]; B. cinerea, 72 h)	MFC ([4]; Botrytis cinerea, 72 h, read-out: Fungicidal activity MIC100, BC)	MIC ([4]; Botrytis cinerea, read-out: MIC100 against B. cinerea expressed in µM)	MIC100 (complete growth inhibition) (A. terreus (M16C))	MIC100 (complete growth inhibition) (A. ustus (PN-S4))	MIC100 (complete growth inhibition) (A. niger (ATCC 9029))	MIC100 (complete growth inhibition) [4, 6]	Fungicidal activity MIC100, F [2]	Fungicidal activity MIC100, AJ (A. japonicus (M15C))	MIC [4, 7]	Fungicidal activity MIC100, AU (A. ustus (PN-S4))	Fungicidal activity MIC100, AN (A. niger (ATCC 9029))	Fungicidal activity MIC100, AF [1]	IC50 [5]	Fungicidal activity MIC100, AT (A. terreus (M16C); A. terreus, 30 °C, total growth inhibition)	IC50 at 24 h ([3]; MRC-5 fibroblasts, 24 h exposure, neutral red uptake, ± SD, read-out: Cytotoxicity IC50)
CC(C)(C)C(=O)C(Oc1ccc(-c2ccccc2)cc1)n1cncn1 (centres unmarked) [Compound 1, 1-(Biphenyl-4-yloxy)-3,3-dimethyl-1-(1H-1,2,4-triazol-1-yl)butan-2-one]	80 ± 2.5 µg/mL (≈ 239 µM)	≥ 100 µg/mL	389 ± 23.5 µM	≥ 100 µg/mL	10 ± 0.7 µg/mL	10 µg/mL (≈ 29.8 µM)	29.8 µM (≈ 10 µg/mL)	≥ 100 µg/mL	50 ± 1.2 µg/mL (≈ 149 µM)	50 ± 1.7 µg/mL (≈ 149 µM)	–	–	–	–	–	–	–	–	–	–
CC(C)(C)C(=O)C(Oc1ccc(-c2ccc(F)cc2)cc1)n1cncn1 (centres unmarked) [Compound 2]	≥ 100 µg/mL	≥ 100 µg/mL	90 ± 4.3 µM	≥ 100 µg/mL	–	–	–	≥ 100 µg/mL	≥ 100 µg/mL	≥ 100 µg/mL	≥ 100 µg/mL	–	–	–	–	–	–	–	–	–
CC(C1CC1)C(O)(Cn1cncn1)c1ccc(-c2ccccc2)cc1 (centres unmarked) [Compound 3, 2-(Biphenyl-4-yl)-3-cyclopropyl-1-(1H-1,2,4-triazol-1-yl)butan-2-ol]	≥ 100 µg/mL	5 µg/mL	118 ± 9.4 µM	12.5 µg/mL (≈ 37.5 µM)	25 ± 1.4 µg/mL	–	–	≥ 100 µg/mL	6.25 µg/mL (≈ 18.7 µM)	3.12 µg/mL (≈ 9.36 µM)	25 µg/mL (≈ 75 µM)	5 ± 0.4 µg/mL	12.5 ± 0.8 µg/mL	75 µM (≈ 25 µg/mL)	6.25 ± 0.3 µg/mL	3.12 ± 0.3 µg/mL	–	–	–	–
COc1ccc(-c2ccc(C(O)(Cn3cncn3)C(C)C3CC3)cc2)cc1 (centres unmarked) [Compound 5, 3-Cyclopropyl-2-(4'-methoxy-[1,1'-biphenyl]-4-yl)-1-(1H-1,2,4-triazol-1-yl)butan-2-ol]	≥ 100 µg/mL	≥ 100 µg/mL	732 ± 29.3 µM	≥ 100 µg/mL	–	–	–	≥ 100 µg/mL	≥ 100 µg/mL	6.25 µg/mL (≈ 17.2 µM)	≥ 100 µg/mL	–	–	–	–	6.25 ± 0.4 µg/mL	–	–	–	–
CC(C1CC1)C(O)(Cn1cncn1)c1ccc(-c2ccc([N+](=O)[O-])cc2)cc1 (centres unmarked) [Compound 6, 3-Cyclopropyl-2-(4'-nitro-[1,1'-biphenyl]-4-yl)-1-(1H-1,2,4-triazol-1-yl)butan-2-ol]	≥ 100 µg/mL	≥ 100 µg/mL	–	≥ 100 µg/mL	–	–	–	≥ 100 µg/mL	≥ 100 µg/mL	≥ 100 µg/mL	≥ 100 µg/mL	–	–	–	–	–	–	–	–	–
CC(C1CC1)C(O)(Cn1cncn1)c1ccc(-c2ccc3ccccc3c2)cc1 (centres unmarked) [Compound 7]	≥ 100 µg/mL	≥ 100 µg/mL	49.1 ± 3.4 µM	≥ 100 µg/mL	–	–	–	≥ 100 µg/mL	6.25 µg/mL (≈ 16.3 µM)	≥ 100 µg/mL	≥ 100 µg/mL	–	–	–	6.25 ± 0.3 µg/mL	–	–	–	–	–
c1nc[nH]n1 [Compound 8, 1H-1,2,4-Triazole]	–	–	–	–	–	–	–	–	–	–	–	≥ 100 µg/mL	≥ 100 µg/mL	–	≥ 100 µg/mL	≥ 100 µg/mL	≥ 100 µg/mL	> 1000 µM	≥ 100 µg/mL	–
CC(C)(C)C(=O)C(Oc1ccc(Cl)cc1)n1cncn1 (centres unmarked) [TDM, 1-(4-chlorofenoxy)-3,3-dimethyl-1-(1H-1,2,4-triazol-1-yl)butan-2-one, reference compound]	80 µg/mL (≈ 272 µM)	≥ 100 µg/mL	–	≥ 100 µg/mL	80 ± 2.2 µg/mL	–	–	> 100 µg/mL	80 ± 2.6 µg/mL (≈ 272 µM)	≥ 100 µg/mL	80 µg/mL (≈ 272 µM)	–	–	274 µM (≈ 80.5 µg/mL)	–	–	80 ± 2.4 µg/mL	–	–	248 ± 12.4 µM
C[C@@H](c1ncncc1F)[C@](O)(Cn1cncn1)c1ccc(F)cc1F [VOR, voriconazole, reference compound]	< 0.75 µg/mL	< 0.75 µg/mL	–	< 0.75 µg/mL	–	–	–	6.25 ± 0.8 µg/mL (≈ 17.9 µM)	1.25 µg/mL (≈ 3.58 µM)	1.25 ± 0.4 µg/mL (≈ 3.58 µM)	< 0.75 µg/mL	–	–	–	1.25 ± 0.5 µg/mL	–	–	–	–	–
